Patent US8604217B2, “Compound, a process for its preparation, a pharmaceutical composition, use of a compound, a method for modulating or regulating serine/threonine kinases and a serine/threonine kinases modulating agent” (Selvita S.A., priority 2009, dated 2013)

Legend:
PIM-1 = PIM-1 (Homo sapiens (Human), UniProt P11309); assay: Luminometric kinase assay for PIM1 kinase (Kinase-Glo); format: biochemical; conditions: 1 μM ATP, 25 min at RT
Experimental: Kinase assay was performed using luminescent Kinase-Glo® (Promega) system. The Kinase-Glo® Luminescent Kinase Assay Platform provides a homogeneous, high-throughput screening method for measuring kinase activity by quantifying the amount of ATP remaining in solution following a kinase reaction. The luminescent signal is correlated with the amount of ATP present and is inversely correlated with the kinase activity. Appropriate amounts of both kinase and substrate were mixed in 96-well, white wall plate in the reaction buffer (8 mM MOPS/NaOH, pH7.0, 0.2 mM EDTA, 2 mM MgCl2). Tested compounds were diluted in DMSO and serial dilutions starting with 1 μM were added to the palates. Reaction was initiated by adding 1 μM of ATP solution and conducted for 25 min. at RT. Luminescent signal was detected by adding Kinase-Glo® reagent and measured using a microplate spectrophotometer (Synergy 2 multi-mode microplate reader (BioTek)). IC50 values were obtained by fitting sigmoidal dose-response curve (variable slope) using GraphPad Prism software.

[1] = test system: human myelomonocytic, biphenotypic leukemia MV4-11 cells; assay: Growth inhibition test (MTS) on MV4-11 cells; format: cell-based; conditions: Homo sapiens, MV4-11, 72 hours, read-out: MV-4-11 ED50
Experimental: Ten thousand cells of human myelomonocytic, biphenotypic leukemia MV4-11 were inoculated into each well of a 96-well microplate (manufactured by Corning Corp.) using Iscove's MDM medium (culture medium) containing 10% fetal calf serum (FCS). Next day, a dimethyl sulfoxide (DMSO) solution of each test compound prepared in a concentration of 10 mmol/L was further diluted with culture medium to the desired concentrations (0.1, 0.5, 1, 2.5, 5 and 10 micromol/L), and the diluted solution was added to each well. The individual wells were further cultured in 5% carbon dioxide at 37° C. for 72 hours. After completion of the culture, 10 μl MTS (3-(4,5-Dimethyl-2-thiazolyl)-5-(carboxymethoxyphenyl)-2-(4-sulfophenyl)-2H-tetrazolium, inner salt assay (CellTiter96® AQueous One Solution Cell Proliferation Assay, Promega) was added to each well, and culturing was performed in 5% carbon dioxide at 37° C. for 2 hours. Using a microplate spectrophotometer (Synergy 2 multi-mode microplate reader (BioTek)), the absorbance of each well was measured at 490 nm. The value for cells not incorporated with a test compound was designated as 100%. By comparing these values with the absorbance difference obtained at the well in which each test compound was added, the cell viability (% viability) after treatment with the test compound was calculated.

PIM-1, sequence (P11309 whole entry): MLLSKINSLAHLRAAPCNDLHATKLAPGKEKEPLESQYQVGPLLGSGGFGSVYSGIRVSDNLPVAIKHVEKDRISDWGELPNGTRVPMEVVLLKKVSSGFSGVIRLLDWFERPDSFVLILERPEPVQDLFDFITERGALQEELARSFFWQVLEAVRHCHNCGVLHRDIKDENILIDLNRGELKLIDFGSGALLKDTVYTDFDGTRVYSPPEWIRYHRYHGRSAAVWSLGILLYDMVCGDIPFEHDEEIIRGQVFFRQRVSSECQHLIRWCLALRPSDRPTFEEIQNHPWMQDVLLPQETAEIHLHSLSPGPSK

Row | IC50 (PIM-1) | IC50 [1] | SMILES
1 | 14.8 nM | 1.36 µM | N[C@@H]1CC=CC[C@H]1Nc1nc2c(Br)c(Br)c(Br)c(Br)c2[nH]1 (relative stereo) [Compound 331, Trans N1-(4,5,6,7-tetrabromo-1H-benzo[d]imidazol-2-yl)cyclohex-4-ene-1,2-diamine]
2 | 13.3 nM | 7.68 µM | Brc1c(Br)c(Br)c2[nH]c(N3CCCC3)nc2c1Br [Compound 18, 4,5,6,7-tetrabromo-2-(pyrrolidin-1-yl)-1H-benzo[d]imidazole]
3 | 37 nM | – | Brc1c(Br)c(Br)c2[nH]c(Nc3ccncc3)nc2c1Br [Compound 28, 4,5,6,7-tetrabromo-N-(pyridin-4-yl)-1H-benzo[d]imidazol-2-amine]
4 | 65.2 nM | – | Brc1c(Br)c(Br)c2[nH]c(NCC3CCNCC3)nc2c1Br [Compound 67, 4,5,6,7-tetrabromo-N-((piperidin-4-yl)methyl)-1H-benzo[d]imidazol-2-amine]
5 | 200 nM | – | Brc1c(Br)c(Br)c2[nH]c(NCc3ccccc3)nc2c1Br [Compound 82, N-benzyl-4,5,6,7-tetrabromo-1H-benzo[d]imidazol-2-amine]
6 | 66 nM | – | Nc1ccc(Nc2nc3c(Br)c(Br)c(Br)c(Br)c3[nH]2)cc1 [Compound 86, N1-(4,5,6,7-tetrabromo-1H-benzo[d]imidazol-2-yl)benzene-1,4-diamine]
7 | 75.7 nM | 7.61 µM | CN(C)CCN(Cc1ccccc1)c1nc2c(Br)c(Br)c(Br)c(Br)c2n1Cc1ccccc1 [Compound 95, N,1-dibenzyl-4,5,6,7-tetrabromo-N-(2-(dimethylamino)ethyl)-1H-benzo[d]imidazol-2-amine]
8 | 85.6 nM | 9.4 µM | CN(Cc1ccccc1)c1nc2c(Br)c(Br)c(Br)c(Br)c2[nH]1 [Compound 117, N-benzyl-4,5,6,7-tetrabromo-N-methyl-1H-benzo[d]imidazol-2-amine]
9 | 71.3 nM | 3.83 µM | Brc1c(Br)c(Br)c2[nH]c(NCCc3ccccn3)nc2c1Br [Compound 128, 4,5,6,7-tetrabromo-N-(2-(pyridin-2-yl)ethyl)-1H-benzo[d]imidazol-2-amine]
10 | 48.9 nM | – | Cc1c(Nc2nc3c(Br)c(Br)c(Br)c(Br)c3[nH]2)cccc1-c1nncn1C [Compound 248, 4,5,6,7-tetrabromo-N-(2-methyl-3-(4-methyl-4H-1,2,4-triazol-3-yl)phenyl)-1H-benzo[d]imidazol-2-amine]
11 | 61.4 nM | – | Cc1nccn1CC1CCCN(c2nc3c(Br)c(Br)c(Br)c(Br)c3[nH]2)C1 (centres unmarked) [Compound 262, 4,5,6,7-tetrabromo-2-(3-((2-methyl-1H-imidazol-1-yl)methyl)piperidin-1-yl)-1H-benzo[d]imidazole]
12 | 128 nM | – | Oc1ncc(Nc2nc3c(Br)c(Br)c(Br)c(Br)c3[nH]2)c(O)n1 [Compound 303, 5-(4,5,6,7-tetrabromo-1H-benzo[d]imidazol-2-ylamino)pyrimidine-2,4-diol]
13 | 14.1 nM | 5.34 µM | OC1CCCCC1Nc1nc2c(Br)c(Br)c(Br)c(Br)c2[nH]1 (centres unmarked) [Compound 334, 2-(4,5,6,7-tetrabromo-1H-benzo[d]imidazol-2-ylamino)cyclohexanol]
14 | 28.6 nM | – | CN(c1ccccc1)c1nc2c(Br)c(Br)c(Br)c(Br)c2[nH]1 [Compound 342, 4,5,6,7-tetrabromo-N-methyl-N-phenyl-1H-benzo[d]imidazol-2-amine]
15 | 36.8 nM | – | CN(C)CCN1CCN(c2nc3c(Br)c(Br)c(Br)c(Br)c3[nH]2)CC1 [Compound 343, 2-(4-(4,5,6,7-tetrabromo-1H-benzo[d]imidazol-2-yl)piperazin-1-yl)-N,N-dimethylethanamine]
16 | 39.5 nM | 3.77 µM | Brc1c(Br)c(Br)c2[nH]c(N3CCNc4ccccc43)nc2c1Br [Compound 367, 1-(4,5,6,7-tetrabromo-1H-benzo[d]imidazol-2-yl)-1,2′,3,4-tetrahydroquinoxaline]
